The values that follow are results of earlier work, collected in patent publication US20230151225A1, “BLENDING ZINC […] BASE MATERIALS IN ORDER TO CREATE QUICKLY APPLIED ANTI-MICROBIAL SURFACES” (CAO Group, Inc., priority 2020, published 2023).

As for zinc pyrithione, the solubility in water is listed as 8 ppm.
